Data: patent US4080466A, “Pharmaceutical compositions containing 4-hydroxyl-1,3-dithiolan-2-ylidene malonates” (Nihon Nohyaku Co., Ltd., priority 1976, dated 1978)

Columns and labels:
[1] = test system: bile flow; experiment: Cholagogic Action: effect on bile flow; type: in vivo, rats (SD-JCL strain); conditions: 200 mg/kg oral; for Bile flow: before treatment = 100
Description: (§1) Drugs as choleresis are used for patients to improve bile flow. In the present example, the effect of the compound of the invention on the quantities of bile and biliary salt is investigated. Methods:
(§2) The male rats (4 week-aged, SD-JCL strain) were anesthetized with sodium pentobarbital (37.5 mg/kg, intraperitoneal injection). The abdominal cavity was opened through a midline incision. The common bile duct was catheterized with polyethylene tube o.d. 0.8 mm. The catheter was brought to the outside through the abdominal incision would prior to closing. Bile was collected from the catheter continuously with time intervals of one hour. The quantity of bile produced in one hour was determined by weighing and that of biliary salt was determined by enzymatic method (Ikagaku Jikkenho Koza 1B, Biological Constituents II, edited by Tamio YAMAKAWA). The amount of biliary salt was represented in the term of cholic acid equivalent.
(§3) In the representation of the results, the quantities of bile and biliary salt produced in one hour prior to the administration of drug were taken as 100. The compound of this invention was orally administered at the dose of 200 mg/kg. As reference, anethol trithion was used.

[2] = test system: alcohol metabolic function of liver; experiment: Effect on Concentration of Ethyl alcohol in the Blood; type: in vivo, mice; conditions: 250 mg/kg oral, 6 h before ethyl alcohol 1,000 mg/kg
Description: After 6 hours, 1,000 mg/kg of ethyl alcohol was given orally. Blood was taken in a capillary from caudal vein at the time indicated in the results. The plasma was obtained by centrifugation. The concentration of ethyl alcohol in the plasma was measured by FID type gas liquid chromatography. Five mice were used for each group.

[3] = test system: glucose metabolism; experiment: Effect on glucose metabolism; type: in vivo, mice; conditions: 250 mg/kg oral, 6 h before glucose 4.0 g/kg
Description: The test compounds dissolved in olive oil and administered orally at the dose of 250 mg/kg to the mice. After 6 hours, 4.0 g/kg of glucose was orally administered. The same amount of glucose was given to the control animals. 0.02 ml of blood was taken from caudal vein of the mice at 30, 60, 90 and 120 min. after glucose administration. Blood sugar was measured by the procedure of Somogyi-Nelson. Number of animals used was 5 to 6 mice for each treatment.

[4] = test system: acute liver damage induced by carbon tetrachloride; experiment: Protective Effect on Acute Liver Damage associated with Centrilobular Necrosis (carbon tetrachloride); type: in vivo, mice (dd-strain); conditions: 250 mg/kg oral, average of 5 to 6 mice
Text: Carbon tetrachloride (CCl4) administration induces centrilobular necrosis of the liver associated with loss of diphosphopyridine nucleotide, hepatic glycogen, coenzyme A and increase in neutral fat. Release of several enzymes from the hepatocytes, and increase of enzyme activities in the plasma are recognized as the result of the damage of the liver. A suitable means for evaluating the degree of damage induced by CCl4 or the degree of protection afforded by drugs is to study the plasma glutamic-pyruvic transminase (p-GPT) activity.
Methods: The test compounds were dissolved or suspended in olive oil and administered orally at the dose of 250 mg/kg to the mice (Four-week-old male mice-dd strain). After 6 hours, CCl4 was administered orally (0.05 ml/kg as olive oil solution). Animals were killed 24 hours after CCl4 administration, and the liver was grossly observed. The plasma was obtained by centrifugation. Activities of p-GPT were determined by the method of Reitman and Frankel and expressed in Karmen units.
Score for liver damage index was as follows:
4 Clearly observable damage
Each figure indicates average of 5 to 6 mice. Values of p-GPT over 1,000 Karmen unit regarded as 1,000 for calculation of average for convenience.

[5] = test system: fatty liver induced by ethionine; experiment: Effect on Fatty Liver (ethionine); type: in vivo, mouse (dd-strain); conditions: 250 mg/kg oral, 24 h, 10 animals
Text: But, the fatty liver is grouped into a couple of patterns from the mechanism of lipid accumulation or metabolism of lipoprotein in the liver. Ethionine is a typical example which induces first pattern of fatty liver. It inhibits RNA and protein synthesis and destructs polysome of the liver cell. Fatty liver is induced by inhibition of the protein synthesis and disturbance of lipoprotein secretion.
Usually, fatty liver is closely related to the accumulation of triglyceride in the liver. In the present example, the degree of fatty liver and protective or therapeutic effect against the fatty liver was evaluated by measurement of triglyceride content in the liver. Methods:
The compounds of this invention and methionine were independently dissolved or suspended into olive oil and administered orally to 4 week-old male mouse (dd-strain) at the dose of 250 mg/kg. One hour before it, simultaneously to it, or one hour after it, ethionine dissolved in equimolar NaOH solution was administered intraperitoneally at the dose of 200 mg/kg. Twenty four hours after the administration of ethionine, the animals were sacrificed and triglyceride content in the liver was determined by chromotropic acid method.

[6] = test system: excretion of biliary salt; experiment: Cholagogic Action: effect on the excretion of biliary salt; type: in vivo, rats (SD-JCL strain); conditions: 200 mg/kg oral; for Excretion of biliary salt: before treatment = 100
Description: as §1, §2, §3

[7] = test system: glucose metabolism; experiment: Effect on glucose metabolism; type: in vivo, mice; conditions: 250 mg/kg oral, 6 h before glucose 4.0 g/kg; 0 min
[8] = test system: fatty liver induced by carbon tetrachloride; experiment: Therapeutic Effect on Fatty Liver (carbon tetrachloride); type: in vivo, rats (SD strain); conditions: 10 days; for Degree of fatty liver (histopathological examination): one symbol per animal
Description: Methods: […] The treated animals were left for 3 days after the last administration to maximize the manifestation of fatty liver. […] It was orally given everyday for 10 days at the dose of 50 or 250 mg/kg. On the 11th day, the animals were sacrificed. The therapeutic effect was evaluated by determining the content of liquid in the liver (triglyceride and total lipid) and examining the histopathological changes. Triglyceride and total lipid were determined colorimetrically by chromotropic acid method and Bragdon's oxidation method, respectively. Indices for the histopathological change is as follows: […]

CCOC(=O)C(C(=O)OCC)=C1SCC(O)S1 (stereo not drawn) [Compound 1, Diethyl 4-hydroxy-1,3-dithiolan-2-ylidene malonate]
Bile flow ([1]; 1 hour after treatment): 110 ± 1.8
Bile flow ([1]; 2 hours after treatment): 115 ± 6.8
Bile flow ([1]; 3 hours after treatment): 105 ± 6.2
Bile flow ([1]; 4 hours after treatment): 98 ± 8.2
Quantity of total excreted bile relative to control ([1]; 5 hours after administration): 1.10 times
Bile flow ([1]; 5 hours after treatment): 80 ± 6.8
Concentration of Ethyl alcohol in Plasma ([2]; 0 min): 12±3 ppm
Concentration of Ethyl alcohol in Plasma ([2]; 5 min): 732±102 ppm
Concentration of Ethyl alcohol in Plasma ([2]; 15 min): 710±88 ppm
Concentration of Ethyl alcohol in Plasma ([2]; 30 min): 455±112 ppm
Concentration of Ethyl alcohol in Plasma ([2]; 60 min): 12±7 ppm
Blood Sugar ([3]; 30 min): 260 ± 20.4 mg/dL
Blood Sugar ([3]; 60 min): 228 ± 15.2 mg/dL
Blood Sugar ([3]; 90 min): 188 ± 11.3 mg/dL
Blood Sugar ([3]; 120 min): 132 ± 10.4 mg/dL
Liver damage index ([4]; 6 h before CCl4 (0.05 ml/kg oral), score 0 Normal, 2 slight, 4 clear, 6 heavy damage): 0.5
p-GPT (plasma glutamic-pyruvic transaminase activity) ([4]; 6 h before CCl4, 24 h after CCl4, values over 1,000 regarded as 1,000): 66 Karmen units
Triglyceride ([5]; compound 1 hr after ethionine): 11.8 ± 0.72 mg/g-liver
Triglyceride ([5]; compound 1 hr before ethionine (200 mg/kg i.p.)): 12.3 ± 0.82 mg/g-liver
Triglyceride ([5]; simultaneous with ethionine (0 hr)): 7.1 ± 0.24 mg/g-liver
Excretion of biliary salt ([6]; 1 hour after treatment): 103 ± 6.8
Excretion of biliary salt ([6]; 2 hours after treatment): 102 ± 6.6
Excretion of biliary salt ([6]; 3 hours after treatment): 100 ± 5.8
Excretion of biliary salt ([6]; 4 hours after treatment): 95 ± 7.7
Amount of total excreted biliary salts relative to control ([6]; 5 hours after administration): 1.40 times
Excretion of biliary salt ([6]; 5 hours after treatment): 86 ± 5.2
Blood Sugar [7]: 138 ± 18.2 mg/dL
Total lipid ([8]; 50 mg/kg oral): 80.2 ± 9.8 mg/g-liver
Triglyceride ([8]; 50 mg/kg oral): 36.2 ± 7.8 mg/g-liver
Degree of fatty liver (histopathological examination) ([8]; 50 mg/kg oral): ± + ± ± ± ± +
Total lipid ([8]; 250 mg/kg oral): 70.3 ± 10.2 mg/g-liver
Triglyceride ([8]; 250 mg/kg oral): 24.9 ± 8.2 mg/g-liver
Degree of fatty liver (histopathological examination) ([8]; 250 mg/kg oral): ± ± - - ± ± ±
